The source of these data is patent US20250296937A1, “CYCLIC BISBENZYL TETRAHYDROISOQUINOLINE COMPOUND, AND PREPARATION METHOD THEREFOR AND USE THEREOF” (Shanghai Institute of Materia Medica, Chinesse Academy of …, priority 2021, published 2025).

pEC50, pIC50: −log10 of the molar value. Where only a bound is given, the exact number is not on record here.

One series has as its system Vero E6 cells. Nature of the series: Cytotoxicity test on Vero E6 cells (CCK8). It is filed as cell-based. On the procedure:
In this embodiment, the half toxicity concentration of each embodiment on Vero E6 cells was determined by CCK8 kit analysis (CC50).

The test system of series [1] is 2019 novel coronavirus (SARS-CoV-2) original strain. The series can be described thus: Replication inhibitory activity against SARS-CoV-2 original strain in Vero E6 cells (qRT-PCR). The series is classed as cell-based. A general note: Real-time PCR tracks product formation cycle by cycle.
The conditions of series [2]: cited from earlier work.
For series [3], the system named is IL-6, IL-1β, CXCL9 mRNA in Raw 264.7 cells. The series can be described thus: mRNA levels of inflammatory indicators in LPS-induced inflammation model of Raw264.7 cells (Q-PCR). The settings on record: 1 μg/ml LPS, 1 μM compound, 16 hours. It is filed as cell-based. The procedure: In this example, the effect of the compounds of the present invention on the inflammation level of the LPS-induced inflammation model of Raw 264.7 cells was analyzed by cell viability in combination with inflammatory factors; cell viability was analyzed by CCK-8 assay; and mRNA expression levels of inflammation-related indicators were detected by a real-time quantitative PCR (Q-PCR) method. Raw 264.7 cells were purchased from ATCC; CCK-8 kit was purchased from Meilunbio, item no. MA0218-3; LPS was purchased from Sigma, item no. L2630.
(§1) Experimental methods: first, 5*10^4 cells/well Raw 264.7 cells were placed in 12-well plates and incubated overnight. On the second day, 0.1% DMSO was added to the control cells, 1 μg/ml LPS as well as 0.1% DMSO was added to the model group, 1 μg/ml LPS as well as 1 μM of the compounds (oxyacanthine hydrochloride (oxy), 1, 2, tetrandrine (tet), 3, 4, 6, 58) was added to the treatment group, and the 12-well plates were sterilized and incubated in a constant temperature incubator for 16 hours. Cellular mRNA was extracted by lysis using Trizol (Yisheng, 10606ES60) and detected by real-time quantitative PCR after reverse transcription.

The target of series [4] is novel coronavirus envelope protein (2-E) ion channel (Severe acute respiratory syndrome coronavirus 2, UniProt P0DTC4). Nature of the series: Novel coronavirus envelope protein (2-E) ion channel activity test, planar lipid bilayer (BLM). The series is classed as biochemical, SARS-CoV-2. The settings on record: room temperature, 1, 10, 50, 100 μM, read-out: Inhibition against 2-E ion channels IC50.

For series [5], the system named is TNF-α and IL1β mRNA in A549 cells. The series can be described thus: mRNA levels of injury indicators in TNF-α-induced A549 cell injury (Q-PCR). It is filed as cell-based. Particulars: 10 ng/ml TNF-α, 1 μM compound, 24 hours. On the procedure:
In this example, cell viability combined with cell death-associated molecules were used to analyze the effect of compounds on the level of TNF-α-induced injury in A549 lung epithelial cells. Cell injury was observed by microscopy; cell viability was analyzed by CCK-8 assay; and mRNA expression levels of injury-related indicators were detected by real-time quantitative PCR (Q-PCR) method. A549 cells were purchased from ATCC, CCK-8 kit was purchased from Meilunbio, item no. MA0218-3, and LPS was purchased from Sigma, item no. L2630.
Experimental methods: first, 5*10^4 cells/well A549 cells were placed in 12-well plates and incubated overnight. On the second day, 0.1% DMSO was added to the control cells, 10 ng/ml TNF-α as well as 0.1% DMSO was added to the model group, 10 ng/ml TNF-α as well as 1 μM of the compounds (oxy, 1, 2, tet, 3, 4, 6, 58) was added to the treatment group, and the 12-well plates were sterilized and incubated in a constant temperature incubator for 24 hours. Cellular mRNA was extracted by lysis using Trizol (Yisheng, 10606ES60) and detected by real-time quantitative PCR after reverse transcription.

Series [6] has as its system A549 lung epithelial cells. The series can be described thus: Anti TGF-β1-induced fibrosis assay in A549 lung epithelial cells (microscopy, Western Blot). The settings on record: 10 ng/ml TGF-β1, 1 μM compound. The series is classed as cell-based. On the procedure:
Cell injury was observed by microscopic observation; cell viability was analyzed by CCK-8 assay; and protein expression levels of fibrosis-related indicators were detected by Western Blot method. A549 cells were purchased from ATCC; CCK-8 kit was purchased from Meilunbio, item number MA0218-3; TGF-β1 was purchased from MCE, item number HY-P70543; primary antibodies: Collagen was purchased from ARG21965, item no. arigobio; α-smooth muscle actin was purchased from CST, item no. mAb #19245; VIMENTN was purchased from CST, item no. mAb #5741; GAPDH was purchased from Yeasen, item no. 30201ES20.
Experimental methods: first, 8000 cells/well A549 cells were placed in 96-well plates and incubated overnight. On the second day, 0.1% DMSO was added to the control cells, 10 ng/ml TGF-β1 as well as 0.1% DMSO was added to the model group, 10 ng/ml TGF-β1 as well as 1 μM of the compounds (oxy, 1, 2, tet, 3, 4, 6, 58) was added to the treatment group, and the 96-well plates were sterilized and incubated in a constant temperature incubator for 72 hours. Finally, cell injury and growth were observed using a microscope; the viability of the cells was detected by CCK-8 kit.
(In general: A western blot detects proteins with antibodies after separation by electrophoresis.)

Series [7] has as its system inflammatory factor mRNA in Raw 264.7 cells. The series can be described thus: mRNA levels of inflammatory indicators in TNF-α-induced inflammation model of Raw264.7 cells (Q-PCR). The series is classed as cell-based. Particulars: 10 ng/ml TNF-α, 1 μM compound, 16 hours. On the procedure: In this embodiment, the effect of compounds on TNF-α-induced inflammation levels in Raw 264.7 cells was analyzed by cell viability combined with inflammatory factor expression levels; cell viability was analyzed by CCK-8 assay; and mRNA expression levels of inflammation-associated indicators were detected by real-time quantitative PCR (Q-PCR) method. Raw 264.7 cells were purchased from ATCC, CCK-8 kit was purchased from Meilunbio, item number MA0218-3, TNF-α was purchased from Merck, item no. GF314.
as §1, with “10 ng/ml TNF-α” for “1 μg/ml LPS”, “transcription, the primers are the same as in Table 2.” for “transcription.”

Chain of novel coronavirus envelope protein (2-E) ion channel (P0DTC4 whole entry, looked up): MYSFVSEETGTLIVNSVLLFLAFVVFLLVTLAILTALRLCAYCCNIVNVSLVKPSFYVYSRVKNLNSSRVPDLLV

`COc1cc2c3cc1Oc1c(OC)c(OC)cc4c1[C@H](Cc1ccc(cc1)Oc1cc(ccc1O)C[C@H]3N(C)CC2)N(C)CC4` [Oxyacanthine, oxyacanthine, reference compound]: the “cytotoxicity (background statement)” value with Vero E6 cells (inventors' screening of natural products) is on record as “high cytotoxicity”. Further, the “antiviral activity against novel coronaviruses (background statement)” value in series [1] is on record as “weak antiviral activity”. Also, the “solubility in ethanol, chloroform, ether, dilute acid” value in series [2] (ethanol, chloroform, ether, dilute acid) is given as “soluble”. Moreover, the solubility in water result in series [2] (water) is “almost insoluble”.
As for “oxyacanthine hydrochloride [reference compound]”, the pIC50 (in general, the IC50 on a negative log10 scale, so that one unit is a factor of ten) with Vero E6 cells (Vero E6 cells, CCK8 kit) is over 4.52; in series [4], under 4.00. Also, the “inhibition of inflammatory factors (IL-6, IL-1β, CXCL9 mRNA) in LPS-induced inflammation model” value in series [3] is listed as “significant inhibition”. Also, the pEC50 (commonly the negative decadic logarithm of the EC50, by convention in mol/L) in series [1] (read-out: Inhibition against viral replication of the original strain EC50) is under 5.00. In addition, the “inhibition of injury (damage) factors mRNA in TNF-α-induced A549 lung cell injury model” value in series [5] is given as “significantly inhibited”. Further, the “alleviation of TGF-β1-induced fibrosis in A549 lung epithelial cells (Collagen1, α-SMA by WB)” value in series [6] was “partially alleviate fibrosis”. Moreover, the “inhibition of inflammatory factors (mRNA) in TNF-α-induced inflammation model” value in series [7] is “significant inhibition”.
